Laboratory results as given in ChEMBL document CHEMBL5252600, “Anti-Aβ42 Aggregative Polyketides from the Antarctic Psychrophilic Fungus Pseudogymnoascus sp. OUCMDZ-3578” (J Nat Prod, 2023).
Activity calls are given as the source filed them. The calls are words filed in the database; no cut-off is given here.

Tests used:
[1] = Metal chelating activity assessed as compound-Cu2+ complex formation incubated for 1 hr by UV-vis spectrophotometric analysis
[2] = molecular target: T1, Amyloid-beta precursor protein (Homo sapiens, UniProt P05067); assay: Inhibition of Amyloid beta (1 to 42) (unknown origin) aggregation incubated for 24 hrs by ThioflavinT-dye based fluorescence analysis
T1 sequence (P05067 whole entry): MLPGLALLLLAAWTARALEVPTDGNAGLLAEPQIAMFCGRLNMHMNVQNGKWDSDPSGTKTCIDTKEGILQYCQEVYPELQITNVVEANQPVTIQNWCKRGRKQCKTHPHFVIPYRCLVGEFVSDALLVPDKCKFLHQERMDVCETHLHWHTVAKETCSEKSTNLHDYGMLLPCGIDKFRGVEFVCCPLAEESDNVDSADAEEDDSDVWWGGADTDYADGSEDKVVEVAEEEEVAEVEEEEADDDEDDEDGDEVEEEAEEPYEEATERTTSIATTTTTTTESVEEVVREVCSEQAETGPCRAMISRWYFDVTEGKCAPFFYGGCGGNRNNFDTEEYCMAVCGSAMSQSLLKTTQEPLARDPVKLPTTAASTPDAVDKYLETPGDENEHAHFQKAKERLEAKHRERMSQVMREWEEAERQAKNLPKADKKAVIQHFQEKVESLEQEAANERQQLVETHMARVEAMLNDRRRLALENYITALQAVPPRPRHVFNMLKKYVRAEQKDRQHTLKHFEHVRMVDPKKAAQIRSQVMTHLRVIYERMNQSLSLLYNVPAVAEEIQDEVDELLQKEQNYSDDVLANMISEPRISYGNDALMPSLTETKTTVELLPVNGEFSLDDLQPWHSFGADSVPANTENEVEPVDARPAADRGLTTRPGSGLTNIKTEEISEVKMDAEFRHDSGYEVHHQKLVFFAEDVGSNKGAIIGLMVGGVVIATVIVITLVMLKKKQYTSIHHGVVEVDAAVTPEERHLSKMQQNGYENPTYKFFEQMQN

[3] = Metal chelating activity assessed as compound-Zn2+ complex formation incubated for 1 hr by UV-vis spectrophotometric analysis
[4] = molecular target: T1, Amyloid-beta precursor protein; assay: Disaggregation of Fe3+ induced Amyloid beta (1 to 42) (unknown origin) aggregation at 100 uM incubated for 24 hrs by ThioflavinT-dye based fluorescence analysis
[5] = molecular target: T1, Amyloid-beta precursor protein; assay: Inhibition of Amyloid beta (1 to 42) (unknown origin) aggregation at 100 uM incubated for 24 hrs by ThioflavinT-dye based fluorescence analysis
[6] = Metal chelating activity assessed as compound-Fe3+ complex formation incubated for 1 hr by UV-vis spectrophotometric analysis

| Structure (SMILES) | Activity [1] | IC50 [2] [µM] | Activity [3] | Activity [4] | inhibition [5] [%] | Activity [6] |
| --- | --- | --- | --- | --- | --- | --- |
| Cc1cc(O)c(C(=O)c2c(O)cc3c(c2O)C(=O)c2c(O)cc(C)cc2C3=O)c(C(=O)c2cc(O)c(O)cc2O)c1 | Active | 0.18 | Active | Active | 86.3 | Active |
| COC(=O)c1cc(O)cc(OC)c1C(=O)c1c(O)cc(CO[C@H]2O[C@H](CO)[C@@H](O)[C@H](O)[C@H]2O)cc1O | Active | 1.03 | Active | Active | 84.5 | Active |
| COC(=O)c1cc(O[C@@H]2O[C@H](COC(=O)CCC(=O)O)[C@@H](O)[C@H](O)[C@H]2O)cc(OC)c1C(=O)c1c(O)cc(C)cc1O | – | 3.01 | – | – | 64.1 | – |
| COC(=O)c1cc(O[C@@H]2O[C@H](CO)[C@@H](O)[C@H](O)[C@H]2O)cc(OC)c1C(=O)c1c(O)cc(C)cc1O | – | 4.73 | – | – | 85.2 | – |
| COc1cc(O)cc(C(=O)O)c1C(=O)c1c(O)cc(CO)cc1O | Active | 1.07 | Active | Active | 73.2 | Active |
| O=C(O[C@@H]1Cc2c(O)cc(O)cc2O[C@@H]1c1cc(O)c(O)c(O)c1)c1cc(O)c(O)c(O)c1 [EPIGALOCATECHIN GALLATE] | – | 0.14 | – | – | – | – |
| COC(=O)c1c(O)cc(C)c(Sc2c(O)cc(OC)c(Oc3c(O)cc(C)cc3O)c2O)c1C(=O)c1c(O)cc(C)cc1O | Active | 0.1 | Active | Active | 85.7 | Active |
| COC(=O)c1c(O)cc(C)cc1C(=O)c1cc(O)cc2oc3cc4c(c(O)c3c12)C(=O)c1c(O)cc(C)cc1C4=O | – | 1.56 | – | – | 85.5 | – |
